# Data: PubChem BioAssay AID1963829 (Molecular Pharmacology Branch, DTP, NCI, 2024)
# pIC50: −log10 of the molar value.
# Test system: 935938-334-R-J1-PDC complex spheroid viability
# Experiment: Anticancer human tumor 935938-334-R-J1-PDC patient-derived small intestine adenocarcinoma cell line growth inhibition [POLQ]
# Settings: for pIC50: curve of first compound; for viability, T/C: stronger effect = lower value
# Protocol: Multicellular complex tumor spheroid response to Polymerase (POL) inhibitors (novobiocin, ART-558, RP6685) in combination with a variety of drugs and investigational agents in selected tumor cell lines
# The POL inhibitors (novobiocin, ART-558, and RP6685) were evaluated both individually and in combination with standard of care and investigational anticancer small molecules within a complex spheroid model of solid tumors. . Complex spheroids include a stromal component modeled by human endothelial cells (HUVEC) and fibroblasts modeled by human mesenchymal stem cells (MSCs). The concentration ranges selected for each drug and investigational agent were based upon clinically achievable concentrations if the clinical Cmax of the agent was known.
# Compounds. The drugs and investigational agents: novobiocin (NSC847541), ART-558 (NSC835418), RP-6685 (NSC848927), peposertib (NSC802822), ceralasertib (NSC780249), elimusertib (NSC800525), camonsertib (NSC841442), AZD-1390 (NSC803789), olaparib (NSC753686), talazoparib (NSC767125), rucaparib (NSC756644), sotorasib (NSC818433), MRTX-1133 (NSC836407), SN-38 (NSC673596), topotecan (NSC609699), epotoside (NSC141540), doxorubicin (NSC123127), gemcitabine (NSC613327), 5-fluorouracil (NSC19893), paclitaxel (NSC125973), vemurafenib (NSC761431), MSA-2 (NSC828583), SN-011 (NSC837082), adavosertib (NSC754352), prexasertib (NSC758257), carboplatin (NSC241240) and oxaliplatin (NSC266046), were obtained from the National Cancer Institute (NCI) Developmental Therapeutics Program Chemical Repository (21). The FDA-approved anticancer drug set is available from the Developmental Therapeutics Program at https://dtp.cancer.gov/organization/dscb/obtaining/. […] The stock solutions were prepared in dimethyl sulfoxide (DMSO, Sigma-Aldrich, St. Louis, MO, cat. D2650), except for the platinum compounds which were prepared in saline (Quality Biological, Gaithersburg, MD, cat. 114-055-101), at 800-fold the tested concentration and stored at -70 degrees C prior to their use. All drugs and investigational agents were tested over a range starting from a high concentration at or near the clinical Cmax and decreasing in half-log increments. If the clinical Cmax for an agent had not been determined, the highest concentration tested was 10 microM, except for SN-38, which was tested at a high concentration of 1 microM.
# Cell Culture. All cells were maintained in an incubator at 37 degrees C and 5% CO2 with 95% humidity. The PDC lines were cultured according to standard operating procedures established by the NCI PDMR (https://pdmr.cancer.gov). Table 3 of the manuscript, lists the cell lines along with the number of the three cell types plated to form the mct-spheroids and media for tumor cell growth. After thawing, all PDC lines, except 997537-175-T-J1-PDC and 415267-285-R-J2-PDC, were cultured in Matrigel-coated flasks prepared with a working solution of 1X Ham's F-12 nutrient mix, without supplementation (Thermo Fisher Scientific, cat. 11765054), 100 U/mL penicillin-streptomycin (Thermo Fisher Scientific, cat. 15140122), and 2.5% Matrigel (Corning Inc., Corning, NY, cat. 354248) for the first three passages. The two PDC lines 997537-175-T-J1-PDC and 415267-285-R-J2-PDC were cultured on uncoated flasks. The 857933-349-R-J2-PDC line was cultured in 6C/Colon 1B media containing advanced DMEM/F-12 (Thermo Fisher Scientific, cat. 12634028), 10 mM HEPES (Thermo Fisher Scientific, cat. 15630080), 1X GlutaMAX supplement (Thermo Fisher Scientific, cat. 35050061), 0.1 mg/mL primocin (InvivoGen, San Diego, CA, cat. ant-pm-2), 10% defined fetal bovine serum, heat inactivated (HyClone Laboratories Inc., Logan, UT, cat. SH30070.03HI), 50% L-WRN conditioned media (ATCC, cat. CRL-3276), 1.25 mM N-Acetyl-L-cysteine (Sigma-Aldrich, cat. A9165), 10 mM nicotinamide (Sigma-Aldrich, cat. N0636), 1X B-27 supplement (Thermo Fisher Scientific, cat. 17504044), 1X N-2 supplement (Thermo Fisher Scientific, cat. […]
# [1] = second compound 0.0316 µM, first compound 0.0316 µM
# [2] = second compound 0.0316 µM, first compound 0.1 µM
# [3] = second compound 0.0316 µM, first compound 0.316 µM
# [4] = second compound 0.0316 µM, first compound 1 µM
# [5] = second compound 0.0316 µM, first compound 3.16 µM
# [6] = second compound 0.0316 µM, first compound 10 µM
# [7] = second compound 0.1 µM, first compound 0.0316 µM
# [8] = second compound 0.1 µM, first compound 0.1 µM
# [9] = second compound 0.1 µM, first compound 0.316 µM
# [10] = second compound 0.1 µM, first compound 1 µM
# [11] = second compound 0.1 µM, first compound 3.16 µM
# [12] = second compound 0.1 µM, first compound 10 µM
# [13] = second compound 0.316 µM, first compound 0.0316 µM
# [14] = second compound 0.316 µM, first compound 0.1 µM
# [15] = second compound 0.316 µM, first compound 0.316 µM
# [16] = second compound 0.316 µM, first compound 1 µM
# [17] = second compound 0.316 µM, first compound 3.16 µM
# [18] = second compound 0.316 µM, first compound 10 µM
# [19] = second compound 1 µM, first compound 0.0316 µM
# [20] = second compound 1 µM, first compound 0.1 µM
# [21] = second compound 1 µM, first compound 0.316 µM
# [22] = second compound 1 µM, first compound 1 µM
# [23] = second compound 1 µM, first compound 3.16 µM
# [24] = second compound 1 µM, first compound 10 µM
# [25] = second compound 3.16 µM, first compound 0.0316 µM
# [26] = second compound 3.16 µM, first compound 0.1 µM
# [27] = second compound 3.16 µM, first compound 0.316 µM
# [28] = second compound 3.16 µM, first compound 1 µM
# [29] = second compound 3.16 µM, first compound 3.16 µM
# [30] = second compound 3.16 µM, first compound 10 µM
# [31] = second compound 10 µM, first compound 0.0316 µM
# [32] = second compound 10 µM, first compound 0.1 µM
# [33] = second compound 10 µM, first compound 0.316 µM
# [34] = second compound 10 µM, first compound 1 µM
# [35] = second compound 10 µM, first compound 3.16 µM
# [36] = second compound 10 µM, first compound 10 µM
# 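Further: spheroids exposed to drugs for seven days before viability read.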
# 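Wherever viability, T/C is given: 100% = DMSO vehicle control wells.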
structure (smiles),measurement,setting,value
CC1COCCN1c1cc(C2(S(C)(=N)=O)CC2)nc(-c2ccnc3[nH]ccc23)n1 (stereo unspecified) + COC1C(OC(N)=O)C(O)C(Oc2ccc3c(O)c(NC(=O)c4ccc(O)c(CC=C(C)C)c4)c(=O)oc3c2C)OC1(C)C,pIC50,second compound 0.0316 µM,5.56
same,pIC50,second compound 0.1 µM,5.67
same,pIC50,second compound 0.316 µM,5.65
same,pIC50,second compound 1 µM,5.41
same,pIC50,second compound 3.16 µM,5.61
same,pIC50,second compound 10 µM,5.67
same,"viability, T/C",[1],111%
same,"viability, T/C",[2],85.8%
same,"viability, T/C",[3],85.7%
same,"viability, T/C",[4],59.5%
same,"viability, T/C",[5],58.6%
same,"viability, T/C",[6],23.1%
same,"viability, T/C",[7],122%
same,"viability, T/C",[8],102%
same,"viability, T/C",[9],82.3%
same,"viability, T/C",[10],67.8%
same,"viability, T/C",[11],43.1%
same,"viability, T/C",[12],17.7%
same,"viability, T/C",[13],104%
same,"viability, T/C",[14],69%
same,"viability, T/C",[15],81.9%
same,"viability, T/C",[16],73%
same,"viability, T/C",[17],38.4%
same,"viability, T/C",[18],17.3%
same,"viability, T/C",[19],96.1%
same,"viability, T/C",[20],80.3%
same,"viability, T/C",[21],84.8%
same,"viability, T/C",[22],64.8%
same,"viability, T/C",[23],65.8%
same,"viability, T/C",[24],14.9%
same,"viability, T/C",[25],86.2%
same,"viability, T/C",[26],87.8%
same,"viability, T/C",[27],90.2%
same,"viability, T/C",[28],68.4%
same,"viability, T/C",[29],45.1%
same,"viability, T/C",[30],16.3%
same,"viability, T/C",[31],105%
same,"viability, T/C",[32],82.5%
same,"viability, T/C",[33],95.2%
same,"viability, T/C",[34],58.1%
same,"viability, T/C",[35],44.3%
same,"viability, T/C",[36],17.3%
CNCc1ccc(-c2[nH]c3cc(F)cc4c3c2CCNC4=O)cc1 + COC1C(OC(N)=O)C(O)C(Oc2ccc3c(O)c(NC(=O)c4ccc(O)c(CC=C(C)C)c4)c(=O)oc3c2C)OC1(C)C,pIC50,second compound 0.0316 µM,< 5.00
same,pIC50,second compound 0.1 µM,< 5.00
same,pIC50,second compound 0.316 µM,< 5.00
same,pIC50,second compound 1 µM,< 5.00
same,pIC50,second compound 3.16 µM,< 5.00
same,pIC50,second compound 10 µM,< 5.00
same,"viability, T/C",[1],124%
same,"viability, T/C",[2],97.1%
same,"viability, T/C",[3],87.9%
same,"viability, T/C",[4],87.4%
same,"viability, T/C",[5],75.4%
same,"viability, T/C",[6],83.4%
same,"viability, T/C",[7],79.9%
same,"viability, T/C",[8],111%
same,"viability, T/C",[9],94.9%
same,"viability, T/C",[10],87.6%
same,"viability, T/C",[11],98.5%
same,"viability, T/C",[12],96.7%
same,"viability, T/C",[13],115%
same,"viability, T/C",[14],108%
same,"viability, T/C",[15],94.9%
same,"viability, T/C",[16],92.3%
same,"viability, T/C",[17],84%
same,"viability, T/C",[18],87.8%
same,"viability, T/C",[19],92.6%
same,"viability, T/C",[20],105%
same,"viability, T/C",[21],113%
same,"viability, T/C",[22],105%
same,"viability, T/C",[23],98.8%
same,"viability, T/C",[24],92.9%
same,"viability, T/C",[25],87.5%
same,"viability, T/C",[26],100%
same,"viability, T/C",[27],70.7%
same,"viability, T/C",[28],75.2%
same,"viability, T/C",[29],94%
same,"viability, T/C",[30],99.2%
same,"viability, T/C",[31],95.7%
same,"viability, T/C",[32],113%
same,"viability, T/C",[33],82.9%
same,"viability, T/C",[34],94.4%
same,"viability, T/C",[35],117%
same,"viability, T/C",[36],88.7%
Nc1ccn(C2OC(CO)C(O)C2(F)F)c(=O)n1 (stereo unspecified) + COC1C(OC(N)=O)C(O)C(Oc2ccc3c(O)c(NC(=O)c4ccc(O)c(CC=C(C)C)c4)c(=O)oc3c2C)OC1(C)C,pIC50,second compound 0.0316 µM,> 7.50
same,pIC50,second compound 0.1 µM,> 7.50
same,pIC50,second compound 0.316 µM,> 7.50
same,pIC50,second compound 1 µM,> 7.50
same,pIC50,second compound 3.16 µM,> 7.50
same,pIC50,second compound 10 µM,> 7.50
same,"viability, T/C",[1],25.5%
same,"viability, T/C",[2],22.1%
same,"viability, T/C",[3],18.8%
same,"viability, T/C",[4],15%
same,"viability, T/C",[5],14.9%
same,"viability, T/C",[6],14.1%
same,"viability, T/C",[7],30.7%
same,"viability, T/C",[8],18.8%
same,"viability, T/C",[9],17.8%
same,"viability, T/C",[10],16.9%
same,"viability, T/C",[11],16.9%
same,"viability, T/C",[12],14.5%
same,"viability, T/C",[13],32.2%
same,"viability, T/C",[14],22.6%
same,"viability, T/C",[15],17.7%
same,"viability, T/C",[16],17.7%
same,"viability, T/C",[17],16.3%
same,"viability, T/C",[18],14.6%
same,"viability, T/C",[19],28.5%
same,"viability, T/C",[20],23.4%
same,"viability, T/C",[21],20.2%
same,"viability, T/C",[22],13.6%
same,"viability, T/C",[23],18.1%
same,"viability, T/C",[24],16.5%
same,"viability, T/C",[25],26.1%
same,"viability, T/C",[26],25.7%
same,"viability, T/C",[27],21.7%
same,"viability, T/C",[28],16.4%
same,"viability, T/C",[29],16.7%
same,"viability, T/C",[30],14.9%
same,"viability, T/C",[31],28.8%
same,"viability, T/C",[32],23.6%
same,"viability, T/C",[33],18.6%
same,"viability, T/C",[34],14.4%
same,"viability, T/C",[35],16.8%
same,"viability, T/C",[36],17.9%
